According to patent US9771325B2, “Tricyclic compounds and preparation thereof” (Council of Scientific & Industrial Research, priority 2014, dated 2017):

Assays:
[1] = test system: Breast (MCF-7) cancer cell line; assay: SRB assay for anticancer activity, MCF-7; assay type: cell-based, human; settings: for inhibition at 10 µM: Homo sapiens, MCF7, 48 h, read-out: % Inhibition at 10 μM Solution in Cancer Cell Line
Method: (§1) SRB Assay Protocol for Anticancer Activity:
(§2) Addition of cells: The human cancer cell lines Ovary (SK-OV-3), Lung (A549) and Breast (MCF-7) maintained in RPMI-1640 medium; Cervical (HeLa), Head & Neck (FaDu) and Colorectal adenocarcinoma (SW620) are maintained in DMEM medium. The enumerated cells are dispensed in a 96-well tissue culture plate. Each well receives 100 μl of the cell suspension containing 10,000-20,000 cells (depending upon the nature of cell line). The cells are then incubated at 37° C. in 5% CO2 concentration for 24 h before addition of the test samples/standard drugs.
(§3) Addition of test samples: 100 μl of working solution of the test sample is added to the cell monolayer to give a final concentration 10 μM (pure compound) For each sample, duplicate wells are included.
(§4) Positive (Drug) and Negative (Vehicle) Controls: In every assay plate both positive and vehicle controls are included. In positive control well, adriamycin (Doxorubicin) is added at 10 μM concentration. In vehicle control wells, DMSO is added. In all assay wells the final concentration of DMSO is 0.1%. The plates are then incubated at 37° C. in 5% CO2 concentration for 48 h.
(§5) Addition of SRB and Colorimetric reading: After 48 h incubation, cells attached to substratum of the plate are fixed by adding cold 50% trichloroacetic acid (TCA, 50 μl/well) on top of the medium and incubated at 4° C. for 1 h. After that the plate is gently washed 5 times with slow running tap water via plastic tubing to remove TCA, culture medium and dead cells. The water stream should not be injected very fast or directly on to the bottom of the wells as this can cause cell monolayer to detach. After washing, the plates are allowed to dry in air (plates can be stored for long periods at room temperature after fixing and drying step) […], 50 μl/well of SRB solution is added and left at room temperature for 30 min. At the end of the staining period, unbound SRB is removed by quickly rinsing plates 4-5 times with 1% (v/v) acetic acid. Plates are allowed to air-dry at room temperature (Stained and dried plates can be stored indefinitely at room temperature). 150 μl of 10 mM Tris base solution is added to each well and plate is shaken for 15 min on a gyratory shaker to solubilize the protein-bound dye. Alternatively, if a shaker is unavailable, SRB gets solubilized after 30 min in Tris base solution. Absorbance is measured at 510 nm in a microplate spectrophotometer.
(§6) Percentage of cell growth inhibition in presence of the test sample is calculated as follows: […]

[2] = test system: Breast MDA-MB-231 cancer cell line; assay: SRB assay for anticancer activity, MDA-MB-231; assay type: cell-based, human; settings: 48 h; for inhibition at 10 µM: Homo sapiens, read-out: % Inhibition at 10 μM Solution in Cancer Cell Line
[3] = test system: cervical C-33A cancer cell line; assay: SRB assay for anticancer activity, C-33A; assay type: cell-based, human; settings: 48 h; for inhibition at 10 µM: Homo sapiens, read-out: % Inhibition at 10 μM Solution in Cancer Cell Line
[4] = test system: Lung NCI-H446 cancer cell line; assay: SRB assay for anticancer activity, NCI-H446; assay type: cell-based, human; settings: 48 h; for inhibition at 10 µM: Homo sapiens, read-out: % Inhibition at 10 μM Solution in Cancer Cell Line
[5] = test system: Cervical (HeLa) cancer cell line; assay: SRB assay for anticancer activity, HeLa; assay type: cell-based, human; settings: 48 h; for inhibition at 10 µM: Homo sapiens, read-out: % Inhibition at 10 μM Solution in Cancer Cell Line
Method: as §1, §2, §3, §4, §5, §6

[6] = test system: Colorectal adenocarcinoma (SW620) cell line; assay: SRB assay for anticancer activity, SW620; assay type: cell-based, human; settings: for inhibition at 10 µM: Homo sapiens, SW-620, Colon SW620, 48 h, read-out: % Inhibition at 10 μM Solution in Cancer Cell Line
Method: as §1, §2, §3, §4, §5, §6

[7] = test system: Head & Neck (FaDu) cancer cell line; assay: SRB assay for anticancer activity, FaDu; assay type: cell-based, human; settings: 48 h; for inhibition at 10 µM: Homo sapiens, read-out: % Inhibition at 10 μM Solution in Cancer Cell Line
Method: as §1, §2, §3, §4, §5, §6

[8] = test system: Lung NCI-H358 cancer cell line; assay: SRB assay for anticancer activity, NCI-H358; assay type: cell-based, human; settings: 48 h; for inhibition at 10 µM: Homo sapiens, read-out: % Inhibition at 10 μM Solution in Cancer Cell Line
[9] = test system: Head & Neck KB cancer cell line; assay: SRB assay for anticancer activity, KB; assay type: cell-based, human; settings: 48 h; for inhibition at 10 µM: Homo sapiens, read-out: % Inhibition at 10 μM Solution in Cancer Cell Line
[10] = test system: Colon DLD-1 cancer cell line; assay: SRB assay for anticancer activity, DLD-1; assay type: cell-based, human; settings: 48 h; for inhibition at 10 µM: Homo sapiens, read-out: % Inhibition at 10 μM Solution in Cancer Cell Line
[11] = test system: Ovary NIH:OVACR-3 cancer cell line; assay: SRB assay for anticancer activity, NIH:OVACR-3; assay type: cell-based, human; settings: 48 h; for inhibition at 10 µM: Homo sapiens, read-out: % Inhibition at 10 μM Solution in Cancer Cell Line
[12] = test system: Ovary (SK-OV-3) cancer cell line; assay: SRB assay for anticancer activity, SK-OV-3; assay type: cell-based, human; settings: for inhibition at 10 µM: Homo sapiens, SK-OV-3, Ovary SKOV3, 48 h, read-out: % Inhibition at 10 μM Solution in Cancer Cell Line
Method: as §1, §2, §3, §4, §5, §6

[13] = test system: Ovary PA1 cancer cell line; assay: SRB assay for anticancer activity, PA1; assay type: cell-based, human; settings: 48 h; for inhibition at 10 µM: Homo sapiens, read-out: % Inhibition at 10 μM Solution in Cancer Cell Line
[14] = test system: Lung (A549) cancer cell line; assay: SRB assay for anticancer activity, A549; assay type: cell-based, human; settings: 48 h; for inhibition at 10 µM: Homo sapiens, read-out: % Inhibition at 10 μM Solution in Cancer Cell Line
Method: as §1, §2, §3, §4, §5, §6

[15] = test system: Colon COLO205 cancer cell line; assay: SRB assay for anticancer activity, COLO205; assay type: cell-based, human; settings: for inhibition at 10 µM: Homo sapiens, COLO 205, 48 h, read-out: % Inhibition at 10 μM Solution in Cancer Cell Line
[16] = test system: KB cells; settings: Chinese Chemical Letters 2013, 24, 57-58, read-out: cytotoxicity against KB cells in vitro, IC50; cited from earlier work

Molecule: 8-Hydroxy-4,7,7-trimethyl-7,8-dihydrocyclopenta[e]isoindole-1,3(2H,6H)-dione [Compound 8]
- % Inhibition at 10 μM Solution in Cancer Cell Line ([1]; 48 h): 4.31%
- % Inhibition at 10 μM Solution in Cancer Cell Line [2]: 0.00%
- % Inhibition at 10 μM Solution in Cancer Cell Line [3]: 0.00%
- % Inhibition at 10 μM Solution in Cancer Cell Line [4]: 0.00%
- % Inhibition at 10 μM Solution in Cancer Cell Line [5]: 29.05%
- % Inhibition at 10 μM Solution in Cancer Cell Line ([6]; Colon SW620, 48 h): −11.48%
- % Inhibition at 10 μM Solution in Cancer Cell Line [7]: 2.10%
- % Inhibition at 10 μM Solution in Cancer Cell Line [8]: 0.00%
- % Inhibition at 10 μM Solution in Cancer Cell Line [9]: 0.00%
- % Inhibition at 10 μM Solution in Cancer Cell Line [10]: 0.00%
- % Inhibition at 10 μM Solution in Cancer Cell Line [11]: 0.00%
- % Inhibition at 10 μM Solution in Cancer Cell Line ([12]; Ovary SKOV3, 48 h): 5.55%
- % Inhibition at 10 μM Solution in Cancer Cell Line [13]: 0.00%
- % Inhibition at 10 μM Solution in Cancer Cell Line [14]: 6.05%
- % Inhibition at 10 μM Solution in Cancer Cell Line ([15]; 48 h): 0.00%

Molecule: Cc1cc2c(c3c1C(=O)NC3=O)C(O)C(C)(C)C2 (stereo not shown) [Compound 1]
- IC50 [16]: 16.6 µM

Molecule: CCOC(=O)C1(C(=O)OCC)Cc2ccc3c(c2C1)C(=O)NC3=O [Compound 18, Diethyl 1,3-dioxo-2,3,6,8-tetrahydrocyclopenta[e]isoindole-7,7(1H)-dicarboxylate]
- inhibition at 10 µM [1]: 6.84%
- inhibition at 10 µM [2]: 0%
- inhibition at 10 µM [3]: 0%
- inhibition at 10 µM [4]: 0%
- inhibition at 10 µM [5]: 20.9%
- inhibition at 10 µM [6]: 13.2%
- inhibition at 10 µM [7]: -0.05%
- inhibition at 10 µM [8]: 0%
- inhibition at 10 µM [9]: 0%
- inhibition at 10 µM [10]: 0%
- inhibition at 10 µM [11]: 0%
- inhibition at 10 µM [12]: -1.46%
- inhibition at 10 µM [13]: 0%
- inhibition at 10 µM [14]: 28.8%
- inhibition at 10 µM [15]: 0%

Molecule: CCOC(=O)C1(C(=O)OCC)Cc2ccc3c(c2C1)C(=O)N(CCO)C3=O [Compound 19, Diethyl 2-(2-hydroxyethyl)-1,3-dioxo-2,3,6,8-tetrahydrocyclopenta[e]isoindole-7,7(1H)-dicarboxylate]
- inhibition at 10 µM [1]: 3.44%
- inhibition at 10 µM [2]: 0%
- inhibition at 10 µM [3]: 0%
- inhibition at 10 µM [4]: 0%
- inhibition at 10 µM [5]: 25.7%
- inhibition at 10 µM [6]: 15.2%
- inhibition at 10 µM [7]: 0.16%
- inhibition at 10 µM [8]: 0%
- inhibition at 10 µM [9]: 0%
- inhibition at 10 µM [10]: 0%
- inhibition at 10 µM [11]: 0%
- inhibition at 10 µM [12]: -3.91%
- inhibition at 10 µM [13]: 0%
- inhibition at 10 µM [14]: 29%
- inhibition at 10 µM [15]: 0%

Molecule: CCOC(=O)C1(C(=O)OCC)Cc2cc(C)c3c(c2C1)C(=O)NC3=O [Compound 22, Diethyl 4-methyl-1,3-dioxo-2,3,6,8-tetrahydrocyclopenta[e]isoindole-7,7(1H)-dicarboxylate]
- inhibition at 10 µM [1]: 10.4%
- inhibition at 10 µM [2]: 0%
- inhibition at 10 µM [3]: 0%
- inhibition at 10 µM [4]: 0%
- inhibition at 10 µM [5]: 34.3%
- inhibition at 10 µM [6]: 15.4%
- inhibition at 10 µM [7]: 10.3%
- inhibition at 10 µM [8]: 0%
- inhibition at 10 µM [9]: 0%
- inhibition at 10 µM [10]: 0%
- inhibition at 10 µM [11]: 0%
- inhibition at 10 µM [12]: -9.36%
- inhibition at 10 µM [13]: 0%
- inhibition at 10 µM [14]: 27%
- inhibition at 10 µM [15]: 0%

Molecule: CCOC(=O)C1(C(=O)OCC)Cc2cc(C)c3c(c2C1)C(=O)N(CCO)C3=O [Compound 23, Diethyl 2-(2-hydroxyethyl)-4-methyl-1,3-dioxo-2,3,6,8-tetrahydrocyclopenta[e]isoindole-7,7(1H)-dicarboxylate]
- inhibition at 10 µM [1]: 8.24%
- inhibition at 10 µM [2]: 0%
- inhibition at 10 µM [3]: 0%
- inhibition at 10 µM [4]: 0%
- inhibition at 10 µM [5]: 31%
- inhibition at 10 µM [6]: 13.3%
- inhibition at 10 µM [7]: 11%
- inhibition at 10 µM [8]: 0%
- inhibition at 10 µM [9]: 0%
- inhibition at 10 µM [10]: 0%
- inhibition at 10 µM [11]: 0%
- inhibition at 10 µM [12]: -7.23%
- inhibition at 10 µM [13]: 0%
- inhibition at 10 µM [14]: 19.2%
- inhibition at 10 µM [15]: 0%

Molecule: CCOC(=O)C1(C(=O)OCC)Cc2cc(C)c3c(c2C1)C(=O)N(S(=O)(=O)c1ccc(F)cc1)C3=O [Compound 24, Diethyl 2-((4-fluorophenyl)sulfonyl)-4-methyl-1,3-dioxo-2,3,6,8-tetrahydrocyclopenta[e]isoindole-7,7(1H)-dicarboxylate]
- inhibition at 10 µM [1]: 34.9%
- inhibition at 10 µM [2]: 0%
- inhibition at 10 µM [3]: 0%
- inhibition at 10 µM [4]: 0%
- inhibition at 10 µM [5]: 65.2%
- inhibition at 10 µM [6]: 50.5%
- inhibition at 10 µM [7]: 59.4%
- inhibition at 10 µM [8]: 0%
- inhibition at 10 µM [9]: 0%
- inhibition at 10 µM [10]: 0%
- inhibition at 10 µM [11]: 0%
- inhibition at 10 µM [12]: 21.2%
- inhibition at 10 µM [13]: 0%
- inhibition at 10 µM [14]: 48.2%
- inhibition at 10 µM [15]: 0%

Molecule: COc1cccc2c1C(=O)c1c(O)c3c(c(O)c1C2=O)C[C@@](O)(C(=O)CO)C[C@@H]3O[C@H]1C[C@H](N)[C@H](O)[C@H](C)O1 [Doxorubicin, reference compound]
- inhibition at 10 µM [1]: 66.7%
- inhibition at 10 µM [2]: 0%
- inhibition at 10 µM [3]: 0%
- inhibition at 10 µM [4]: 0%
- inhibition at 10 µM [5]: 89.5%
- inhibition at 10 µM [6]: 80.3%
- inhibition at 10 µM [7]: 89.6%
- inhibition at 10 µM [8]: 0%
- inhibition at 10 µM [9]: 0%
- inhibition at 10 µM [10]: 0%
- inhibition at 10 µM [11]: 0%
- inhibition at 10 µM [12]: 58%
- inhibition at 10 µM [13]: 0%
- inhibition at 10 µM [14]: 69.1%
- inhibition at 10 µM [15]: 0%
